For one test, the system named is STAT3 gene. The test can be described thus: RT-qPCR gene expression of STAT3. Format: cell-based, human. The conditions noted are these: A549, IC25, 24 h. Here is the method: A549 cells were seeded into 6-well plates at a density of 1 × 10^6 cells/mL in supplemented DMEM. The cells were incubated with the triterpenes (IC25) for 24 h. Total RNA was extracted from the cells using the TRIzol reagent (Invitrogen Corporation, Carlsbad, CA, USA) according to the manufacturer’s instructions. The purity and concentration of RNA were assessed using a NanoDrop spectrophotometer (Thermo Fisher Scientific). cDNA was synthesized using the High-Capacity cDNA Reverse Transcription Kit (Applied Biosystems) according to the manufacturer’s instructions.
RT-qPCR was performed on a StepOnePlus® Real-Time PCR System (Thermo Fisher Scientific) using TaqMan Gene Expression Assays (Applied Biosystems) for PDL1 (CD274; Assay ID: Hs01125297_m1), ribonucleotide reductase (RR) M1 (Assay ID: Hs01040697_m1), and STAT3 (Assay ID: Hs01047586_g1). Each reaction consisted of 10 ng of cDNA, TaqMan Gene Expression Master Mix (Applied Biosystems), and TaqMan probes. The PCR cycling conditions were as follows: 95 °C for 10 min, followed by 40 cycles of 95 °C for 15 s and 60 °C for 60 s. The relative gene expression levels were calculated using the ΔΔCt method. GAPDH (Assay ID: Hs02758991_g1) was used as the endogenous control for normalization.
All RT-qPCR experiments were performed at least in triplicate. All data were expressed by plotting values with an average of four measurements for each treatment condition as the mean ± SD and analyzed with the software GraphPad Prism 9. Statistical analysis was performed using one-way analysis of variance (ANOVA) to compare the mean value of each treated type of cells versus the control (untreated cells). The statistical significance defined by the software for p values was **** < 0.0001, *** from 0.001 to 0.0001, ** from 0.001 to 0.01, * from 0.01 to 0.05, and non-significant (ns) ≥ 0.05.
(In general: Quantitative PCR measures a nucleic acid by following its amplification.)

In test [1] the test system is DNA damage machinery in A549 cells. Put plainly: DNA damage assay (anti-pH2AX / anti-pATM, flow cytometry). Conditions: A549, IC50, 24 h, vs untreated cells. In kind it is cell-based, human. As for the experimental part: We used flow cytometry to analyze several cellular mechanistic pathways in A549 cells after incubation with the triterpenes. In general, the cells were seeded in a 6-well plate at a density of 1 × 10^6 cells/mL and incubated for 24 h in supplemented DMEM. After 24 h, the A549 cells were treated with the triterpenes, following each manufacturer’s protocol. All of the following experiments were performed in a Muse® Cell Analyzer (EMD Millipore Corporation, Temecula, CA). The instrument was calibrated before each assay using the Muse® System Check Kit (Luminex MCH100101, Luminex Corporation). Each assay was run at least in two independent experiments. For each experiment, all samples were analyzed in triplicate in the instrument and the capillary line was washed after each sample run to avoid artifacts. In addition, to address the issue of cell doublets, we used the Muse® Cell Dispersal Reagent (Luminex Corporation) in all experiments. The concentration of the triterpenes in each assay was selected depending on the cellular concentration necessary to generate the gain signal in the instrument. This means that we attempted to select concentrations avoiding excessive cytotoxicity to accurately determine the respective signal from each assay.
Then, the A549 cells were scraped and centrifuged. The pellet was suspended in the assay buffer from the Luminex MCH200107 kit (Luminex Corporation). […]
For orientation: Flow cytometry measures light scatter and fluorescence of single cells or particles in a stream.

With `C=C(C)[C@@H]1CC[C@]2(C(=O)O)CC[C@]3(C)[C@H](CC[C@@H]4[C@@]5(C)CC[C@H](O)C(C)(C)[C@@H]5CC[C@]43C)[C@@H]12` [BeA, betulinic acid], in the test on STAT3 gene, the “STAT3 gene expression (in words)” value is on record as “superior in suppressing both genes”.
For the compound `C[C@H]1[C@H](C)CC[C@]2(C(=O)O)CC[C@]3(C)C(=CC[C@@H]4[C@@]5(C)CC[C@H](O)C(C)(C)[C@@H]5CC[C@]43C)[C@H]12` [UrA, ursolic acid], the “Activation of the DNA damage machinery (in words)” value in test [1] is “caused the activation of the DNA damage machinery”.

The values are drawn from PMC11206507, “Unraveling the Impact of Six Pentacyclic Triterpenes Regulating Metabolic Pathways on Lung Carcinoma Cells” (Pharmaceuticals, 2024).
